Assay results published in patent US20100069854A1, “Elastomeric Devices Containing Chlorhexidine/Fatty Acid Salts Made From Fatty Acids of 12 to 18 Carbons” (priority 2008, published 2010).

Columns and labels:
[1] = system: Candida albicans ATCC 10231; assay: Zone of inhibition assay with impregnated polyurethane foam discs; assay type: cell-based
Procedure: To evaluate antimicrobial properties of polyurethane foam samples infused with the various chlorhexidine/fatty acid salts, a zone of inhibition assay was performed. In this assay, 1.4% (w/v) of chlorhexidine acetate, chlorhexidine caprate, chlorhexidine laurate, chlorhexidine myristate, chlorhexidine palmitate and chlorhexidine stearate solutions in methanol were prepared. A supply of 8 mm discs were punched out of a sheet of polyurethane foam (Rynel medical grade polyurethane foam) with biopsy punches (Miltex Kai). Several discs were placed in each of six 50 ml centrifuge tubes. Approximately 5 ml of each of the different methanol/chlorhexidine/fatty acid salt solutions was added to each respective tube. The discs were centrifuged for 5 minutes to remove any air bubbles and soaked for 1 hr to infuse the foam discs with the respective chlorhexidine/fatty acid salt. Infused discs were transferred to clean centrifuge tubes and vacuum dried at 25° C. for 24 hrs to remove any residual solvents. Initial concentrations of salts, impregnated into the punches, were determined by dissolving the impregnated foams and by high pressure liquid chromatography (HPLC) analysis using an Agilent Eclipse XDB-CN 3u 4.6×150 mm column with initial mobile phase=65% DI water/0.2% trifluoroacetic acid (TFA): 35% Acetonitrile/0.2% TFA. Chlorhexidine absorbance was read at 253 nm and concentration was calculated via a chlorhexidine calibration curve. […] To perform the zone of inhibition assay on the impregnated polyurethane foam discs, agar plates were prepared by mixing 11 g Mueller-Hinton cation-adjusted broth and 1.5 g agarose in 500 ml DI water. The agar was autoclaved for 15 minutes at 121° C., 15 psi. 10 ml of the still hot, liquid agar was pipetted onto petri dishes. The challenge organism, Candida albicans ATCC 10231, was cultivated in Trypticase soy broth, standard microbiological growth medium (TSB). Sterile cotton swabs were dipped into the undiluted culture and the plated agar was fully inoculated with swabs. The 8 mm polyurethane foam discs were transferred daily to a freshly inoculated agar for 9 days. The zone of inhibition (ZOI) was measured using calipers. Actual ZOI was measured by subtracting the diameter of the foam (when wet) from the zone measured and dividing by 2. The results are presented in Table 6, with a graphical representation of the ZOI in FIG. 2;

[2] = Incorporation of chlorhexidine salts into silicone tubing (swelling impregnation, extraction, HPLC); assay type: physicochemical; conditions: one day, equivalent mass of chlorhexidine base extracted;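 note: columns differ by chlorhexidine salt concentration in the impregnation solution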
Procedure: Chlorhexidine diacetate, Chlorhexidine dodecanoate and chlorhexidine palmitate were loaded into silicone tubing by first dissolving the chlorhexidine salt in a 90% THF+10% Methanol solution.
Impregnated chlorhexidine was extracted from the tubing by immersing in an excess of THF to fully swell it and then adding an equal volume of water to extract the chlorhexidine salt. The quantity of chlorhexidine was determined by previously enumerated HPLC method. It is reported below for different concentration impregnation solutions in terms of the equivalent mass of chlorhexidine base extracted: […]

N=C(NCCCCCCNC(=N)NC(=N)Nc1ccc(Cl)cc1)NC(=N)Nc1ccc(Cl)cc1.Nc1ccc(P(=O)(O)O)cc1.Nc1ccc(P(=O)(O)O)cc1 [Chlorhexidine Palmitate, chlorhexidine dipalmitate]
ZOI produced by impregnated polyurethane foam punches against Candida albicans ([1]; Day 1, daily transfer to fresh agar): 14 mm | ZOI produced by impregnated polyurethane foam punches against Candida albicans ([1]; Day 2, daily transfer to fresh agar): 21 mm | ZOI produced by impregnated polyurethane foam punches against Candida albicans ([1]; Day 3, daily transfer to fresh agar): 19 mm | ZOI produced by impregnated polyurethane foam punches against Candida albicans ([1]; Day 4, daily transfer to fresh agar): 14 mm | ZOI produced by impregnated polyurethane foam punches against Candida albicans ([1]; Day 7, daily transfer to fresh agar): 11 mm | ZOI produced by impregnated polyurethane foam punches against Candida albicans ([1]; Day 8, daily transfer to fresh agar): 14 mm | ZOI produced by impregnated polyurethane foam punches against Candida albicans ([1]; Day 9, daily transfer to fresh agar): 15 mm | Salt content in silicone elastomeric medical article ([2]; 1% impregnation solution in 90% THF+10% Methanol): 133 µg/cm | Salt content in silicone elastomeric medical article ([2]; 3% impregnation solution in 90% THF+10% Methanol): 205 µg/cm | Salt content in silicone elastomeric medical article ([2]; 6% impregnation solution in 90% THF+10% Methanol): 356 µg/cm | Salt content in silicone elastomeric medical article ([2]; 10% impregnation solution in 90% THF+10% Methanol): 366 µg/cm | Salt content in silicone elastomeric medical article ([2]; 20% impregnation solution in 90% THF+10% Methanol): 407 µg/cm
